Like-named read-outs stand apart in the source and are kept apart here.
Columns and labels:
[1] = Pharmacokinetics of Compound I in monkey after intravenous and oral administration (plasma LC/MS/MS, noncompartmental analysis); type: in vivo, male rhesus monkeys; conditions: mean ± SD; for Vd: iv
Protocol: (§1) The following experiments were conducted using samples of Compound I prepared by a method disclosed in U.S. Pat. No. 7,763,608, which is incorporated by reference in its entirety.
(§2) For the dog and monkey study, Compound I was also used. An IV and PO dose of Compound I (1.0 and 5.0 mg/kg, respectively) was prepared. The IV dose was formulated similarly to that used in the rat study (50% PEG300 in water). The PO dose was suspended in 0.5% methylcellulose at a concentration of 1.0 mg/mL with a final pH of approximately 3.50.
(§3) A total of six male Sprague-Dawley rats (n=3/dosing group) from Charles River Laboratories (Hollister, Calif.), three male beagle dogs from Marshall BioResources (North Rose, N.Y.) and three male rhesus monkeys were utilized. All surgical procedures in rat (femoral and jugular vein catheterizations) were performed 8 days prior to utilization in the study and rats were acclimated in-house 5 days prior to utilization. Dogs were acclimated in-house at least seven days prior to utilization and were returned to the colony at the completion of the study. Monkey studies were conducted by an off-site contract laboratory.
(§4) All animals were fasted from the afternoon prior to study initiation to two hours post-dose (approximately 18 hours). Water was provided ad libitum. All animal rooms were on a 12 hour light-dark cycles (6 A.M. to 6 P.M.). On the morning of experimentation, animals were weighed. Rat femoral and jugular (IV only) vein blood lines were exteriorized and attached to access ports. Dogs were weighed and shaved at blood sampling and IV dosing sites (along both cephalic and saphenous veins).
(§5) All animals were dosed based on individual weights with a PO gavage volume of 5.0 mL/kg and an IV bolus dose volume of 1.0 mL/kg. Blood samples were obtained on 3.8% TSC (1:10 dilution) over a 24, 56, and 96 hour period post-dosing for the rat, dog, and monkey, respectively. Blood samples were centrifuged for platelet poor plasma, and resulting plasma was stored at −20° C. until sample analysis. Rat urine samples were collected on 200 μL of 2% boric acid from animals in the IV group at 0 (overnight), 10, and 24 hours post-dose. At collection times, urine volume and water consumption was recorded. Urine samples were stored at −20° C. until sample analysis.
(§6) Plasma and urine samples were analyzed for Compound I concentration using a liquid chromatography tandem mass spectrometry (LC/MS/MS). In brief, plasma and urine samples were processed in a 96-well Captiva™ filter plate (0.2 μm, Varian, Inc., Palo Alto, Calif.). Aliquots of plasma samples were precipitated with acetonitrile containing 500 ng/mL of N-(2-(5-chloropyridin-2-ylcarbaomoyl)-4-methoxyphenyl)-4-(N,N-dimethylcarbamimidoyl)-2-fluorobenzamide, an internal standard. Aliquots of urine samples were diluted with plasma before mixing with acetonitrile containing internal standard. The mixture was vortexed and refrigerated at 4° C. for 30 minutes to allow complete protein precipitation. The mixture was filtered into a 96-well collection plate. The filtrate was injected onto a Sciex API3000 LC/MS/MS equipped with a turbo-ion spray source. Compound I and N-(2-(5-chloropyridin-2-ylcarbaomoyl)-4-methoxyphenyl)-4-(N,N-dimethylcarbamimidoyl)-2-fluorobenzamide were separated on a Thermo Hypersil-Keystone Betasil C18 column (4.6×100 mm, 5 μm; Fisher Scientific, Houston, Tex.). A mobile phase gradient mixture of 90% mobile phase A (0.5% formic acid in water) and 10% mobile phase B (0.5% formic acid in 90% acetonitrile) to 40% mobile phase B (programmed over 2.8 minutes). The peak areas of the m/z 411→250 product ion (Compound I) were measured against those of the m/z 470→342 product ion (N-(2-(5-chloropyridin-2-ylcarbaomoyl)-4-methoxyphenyl)-4-(N,N-dimethylcarbamimidoyl)-2-fluorobenzamide) in positive ion mode. The analytical range was 0.500 to 10,000 ng/mL.
(§7) Sample Compound I concentrations below the lower limit of quantitation (LLQ) were reported as <0.500 ng/mL. […]

[2] = Pharmacokinetics of Compound I in dog after intravenous and oral administration (plasma LC/MS/MS, noncompartmental analysis); type: in vivo, male beagle dogs; conditions: mean ± SD; for Vd: iv
Protocol: as §1, §2, §3, §4, §5, §6, §7

[3] = Pharmacokinetics of Compound I in rat after intravenous and oral administration (plasma and urine LC/MS/MS, noncompartmental analysis); type: in vivo, male Sprague-Dawley rats; conditions: mean ± SD; for half-life: read-out: T1/2 (terminal half-life) (converted); for Vd: iv
Protocol: as §1
Compound I was used in the rat investigation. An intravenous (IV) and oral (PO) dose of Compound I (1.0 and 10 mg/kg, respectively) was prepared. The IV dose was solubilized in 50% PEG300 to yield a final concentration of 1.0 mg/mL with a final pH of 5.13. The PO dose was suspended in 0.5% methylcellulose at a concentration of 2.0 mg/mL with a final pH of 2.70.
as §3, §4, §5, §6, §7

[4] = male, rhesus, rhesus monkey, plasma, intravenous, 1 mg/kg
[5] = male, rhesus, rhesus monkey, plasma, oral, 5 mg/kg
[6] = male, beagle, plasma, intravenous, 1 mg/kg
[7] = male, beagle, plasma, oral, 5 mg/kg
[8] = male, Sprague-Dawley, plasma, intravenous, 1 mg/kg
[9] = male, Sprague-Dawley, plasma, oral, 10 mg/kg

## O=C(NCc1cn(-c2ccc(-n3ccccc3=O)cc2)cn1)c1ccc(Cl)s1 [Compound I, 5-chloro-N-((1-(4-(2-oxopyridin-1(2H)-yl)phenyl)-1H-imidazol-4-yl)methyl)thiophene-2-carboxamide]
[1]; [4]
  AUC: 12.6 ± 6 µg·h/mL
  AUC(0-inf): 12.6 ± 6 µg·h/mL
[1]; male, rhesus, rhesus monkey, plasma, intravenous, 1 mg/kg, read-out: CL (systemic clearance)
  clearance: 0.0996 ± 0.0636 L/h/kg
[1]; male, rhesus, rhesus monkey, plasma, 1 mg/kg, intravenous, 1 mg/kg, read-out: Vss (volume of distribution at steady-state)
  Vd: 0.353 ± 0.059 L/kg
[1]; male, rhesus, rhesus monkey, plasma, 1 mg/kg, intravenous, 1 mg/kg, read-out: Vz (volume of distribution)
  Vd: 2.31 ± 1.71 L/kg
[1]; [5]
  AUC: 42.1 ± 17.2 µg·h/mL
  AUC(0-inf): 42.1 ± 17.2 µg·h/mL
  Cmax: 6.04 ± 1.88 µg/mL
  Tmax: 2 h
[1]; oral, 5 mg/kg
  AUC/D (dose-normalized AUC(0-inf)): 8430 ± 3449 kg·h/mL
[2]; [6]
  AUC: 1.61 ± 0.36 µg·h/mL
  AUC(0-inf): 1.62 ± 0.363 µg·h/mL
[2]; male, beagle, plasma, intravenous, 1 mg/kg, read-out: CL (systemic clearance)
  clearance: 0.642 ± 0.161 L/h/kg
[2]; male, beagle, plasma, 1 mg/kg, intravenous, 1 mg/kg, read-out: Vss (volume of distribution at steady-state)
  Vd: 0.843 ± 0.288 L/kg
[2]; male, beagle, plasma, 1 mg/kg, intravenous, 1 mg/kg, read-out: Vz (volume of distribution)
  Vd: 2.73 ± 2.45 L/kg
[2]; [7]
  AUC: 5.46 ± 1.47 µg·h/mL
  AUC(0-inf): 5.48 ± 1.48 µg·h/mL
  Cmax: 2.72 ± 0.474 µg/mL
  Tmax: 0.583 ± 0.382 h
[2]; oral, 5 mg/kg
  AUC/D (dose-normalized AUC(0-inf)): 1095 ± 295 kg·h/mL
[3]; intravenous, 1 mg/kg
  Dose excreted unchanged in urine: 0.248 ± 0.019%
[3]; [8]
  AUC: 5.38 ± 1.19 µg·h/mL
  AUC(0-inf): 5.4 ± 1.16 µg·h/mL
  half-life: 2.86 ± 1.4 h
[3]; male, Sprague-Dawley, plasma, intravenous, 1 mg/kg, read-out: CL (systemic clearance)
  clearance: 0.191 ± 0.044 L/h/kg
[3]; male, Sprague-Dawley, plasma, 1 mg/kg, intravenous, 1 mg/kg, read-out: Vss (volume of distribution at steady-state)
  Vd: 0.368 ± 0.026 L/kg
[3]; male, Sprague-Dawley, plasma, 1 mg/kg, intravenous, 1 mg/kg, read-out: Vz (volume of distribution)
  Vd: 0.757 ± 0.328 L/kg
[3]; [9]
  AUC: 68.5 ± 12.5 µg·h/mL
  AUC(0-inf): 68.6 ± 12.5 µg·h/mL
  Cmax: 28.9 ± 2.08 µg/mL
  Tmax: 0.25 h
  half-life: 2.72 ± 0.29 h
[3]; oral, 10 mg/kg
  AUC/D (dose-normalized AUC(0-inf)): 6859 ± 1249 kg·h/mL
